In data set [1] the target is testosterone 5α-reductase prepared from rat prostates. As to the kind of experiment: Testosterone 5α-reductase assay ([1,2,6,7-3H]testosterone as substrate).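 Also: conversion of tritiated testosterone to 5α-dihydrotestosterone, separated by TLC and scintillation counted, relative to enzyme control without test sample after subtracting substrate blank without enzyme.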
Protocol: Since the rat prostate extracts for measuring testosterone 5α-reductase inhibition were used in a neutral pH buffer, both isozymes were assayed in this study due to differences in its biochemical properties.
The enzyme suspension of testosterone 5α-reductase was prepared from the homogenate of the ventral prostate of male Sprague-Dawley rats using the methods previously reported [32]. Testosterone 5α-reductase inhibition was measured according to the methods previously reported [32]. A brief description follows: Sprague-Dawley male rats 7-8 weeks old were sacrificed by diethyl ether, and the ventral prostates were excised and minced with a pair of scissors. The prostates were homogenized with a glass-glass homogenizer in medium A (0.32 M sucrose, 0.1 mM dithiothreitol and 20 mM sodium phosphate, pH 6.5) to about 20% (w/v). The homogenate was filtered over 8 layers of surgical gauze, and centrifuged at 3,000 × g for 15 min. The resulting pellets were resuspended in medium A to about 25% (w/v) by triturating the suspension sequentially through an 18-gauge and then a 20-gauge needle. The assay mixture containing the test sample in ethanol (10 μL), reaction solution [525 μL, 1 mM dithiothreitol, 40 mM sodium phosphate (pH 6.5), 50 µM NADPH and 2.2 mM [1,2,6,7-^3H]testosterone, 3.15-3.89 TBq/mmol, PerkinElmer (Waltham, MA, USA)] and the enzyme suspension prepared above (40 μL), was incubated at 37°C for 1 h. After extraction with ethyl acetate (1 mL), a sample of the ethyl acetate phase (50 μL) was chromatographed on a silica plastic sheet (Kieselgel 60 F254, Merck KGaA (Darmstadt, Germany)) using the developing solvent system ethyl acetate-cyclohexane (1:1). Each of the testosterone and 5α-dihydrotestosterone areas was cut from the sheet. The ^3H radioactivity of each fragment was counted in 5 mL of Aquasol-2 (PerkinElmer) with a liquid scintillation counter [LS 6500, Beckman Coulter (Brea, CA, USA)]. Testosterone 5α-reductase inhibitory activity was calculated as follows:
where DHT and T are the ^3H radioactivity recovered in the areas of 5α-dihydrotestosterone and testosterone, respectively. rsample and rcontrol are reaction rates of the test sample and the enzyme control in which reaction rates are measured in the presence and absence of test sample, respectively, and rblank is reaction rate of the substrate blank in which reaction rate is measured in the absence of test sample and enzyme suspension. IC50 was calculated from the inhibitory activity values at several concentrations using linear regression analysis. Each enzyme reaction was carried out in duplicate.
[2] abbreviates: read-out: IC50 (5α-reductase inhibitory activity), rat prostatic testosterone 5α-reductase.
Setting [3] is: read-out: IC50 (testosterone 5α-reductase inhibitory activity), rat ventral prostate enzyme suspension, pH 6.5, 37°C, 1 h, both type 1 and type 2 isozymes.
Where [4] appears, read: rat prostatic testosterone 5α-reductase.

Like-named read-outs stand apart in the source and are kept apart here.

For orientation: melting point means the temperature, or range, at which the solid turns liquid. A word on the IC50: it is the concentration needed to halve the response being measured.

In turn, `CC(=NO)[C@H]1CC[C@H]2[C@@H]3C=CC4=CC(=O)[C@@H]5O[C@@H]5[C@]4(C)[C@H]3CC[C@]12C` showed a melting point of 228 to 230 °C.

Compound `CC(=NO)[C@H]1CC[C@H]2[C@@H]3[C@@H]4O[C@@H]4C4=CC(=O)C=C[C@]4(C)[C@H]3CC[C@]12C` came in with a melting point of 245 to 247 °C.

As for `CC(=O)[C@H]1CC[C@H]2[C@@H]3CCC4=CC(=O)CC[C@]4(C)[C@H]3CC[C@]12C` [Compound 1, 4-pregnene-3,20-dione, reference compound], the IC50 in data set [1] (setting [2]) and in data set [1] (setting [3]) was 6.5 nM throughout.

In turn, `CC(=O)[C@H]1CCC2C3CCC(=O)[C@](C)(CCC(=O)O)C3CC[C@@]21C` (stereo partly shown) [Compound 2, 5,20-Dioxo-A-nor-3,5-secopregnane-3-oic acid] yielded a melting point of 176 to 178 °C. In addition, the “5α-reductase inhibitory activity in words” value in data set [1] (setting [4]) is recorded as “only a weak inhibitory activity”. For the same compound, in data set [1] (setting [3]), the IC50 is over 10000 nM.

The compound `CC(=O)[C@H]1CC[C@H]2[C@@H]3CC=C4NC(=O)CC[C@]4(C)[C@H]3CC[C@]12C` [Compound 3, 4-Aza-5-pregnene-3,20-dione] had a melting point of 158 to 160 °C. Further, the “5α-reductase inhibitory activity in words” value in data set [1] (setting [4]) was “moderate inhibition”. Besides, the IC50 in data set [1] (setting [3]) is 2300 nM.

Take `CC(=NO)[C@H]1CC[C@H]2[C@@H]3CC=C4NC(=O)CC[C@]4(C)[C@H]3CC[C@]12C` [Compound 4, 4-Aza-5-pregnene-3,20-dione-20-oxime]: the melting point is 208 to 210 °C. The “5α-reductase inhibitory activity in words” value in data set [1] (setting [4]) was “potent inhibition”. In data set [1] (setting [2]), the IC50 stood at 26 nM. Moreover, the IC50 in data set [1] (setting [3]) came out at 26 nM.

As for `CC(=O)[C@H]1CC[C@H]2[C@@H]3CCC4NC(=O)CC[C@]4(C)[C@H]3CC[C@]12C` (stereo partly shown) [Compound 5, 4-Aza-pregnane-3,20-dione], in data set [1] (setting [4]), the “5α-reductase inhibitory activity in words” value was “potent inhibition”. For the same compound, the IC50 in data set [1] (setting [3]) is 6100 nM.

`CC(=NO)[C@H]1CC[C@H]2[C@@H]3CCC4NC(=O)CC[C@]4(C)[C@H]3CC[C@]12C` (stereo partly shown) [Compound 6, 4-Aza-pregnane-3,20-dione-20-oxime] came in with a melting point of 194 to 196 °C. Moreover, in data set [1] (setting [4]), the “5α-reductase inhibitory activity in words” value was “potent inhibition”. Besides, in data set [1] (setting [2]), the half-maximal inhibitory concentration (IC50) is 10 nM. Moreover, in data set [1] (setting [3]), the IC50 was 10 nM.

For `CC(=O)[C@H]1CC[C@H]2[C@@H]3CCC4NC(=O)C=C[C@]4(C)[C@H]3CC[C@]12C` (stereo partly shown) [Compound 7, 4-Aza-1-pregnene-3,20-dione], the melting point lay in the range of 174 to 176 °C. Also, the “5α-reductase inhibitory activity in words” value in data set [1] (setting [4]) is recorded as “potent inhibition”. For the same compound, the IC50 in data set [1] (setting [3]) turned out to be 14 nM.

As for `CC(=NO)[C@H]1CC[C@H]2[C@@H]3CCC4NC(=O)C=C[C@]4(C)[C@H]3CC[C@]12C` (stereo partly shown) [Compound 8, 4-Aza-1-pregnene-3,20-dione-20-oxime], the melting point is 235 to 237 °C. Further, the “5α-reductase inhibitory activity in words” value in data set [1] (setting [4]) was “potent inhibition”. Moreover, the IC50 in data set [1] (setting [2]) stood at 11 nM. In data set [1] (setting [3]), the concentration for half-maximal inhibition (IC50) stood at 11 nM.

Take `CC(=O)[C@H]1CC[C@H]2[C@@H]3C=CC4=CC(=O)C=C[C@]4(C)[C@H]3CC[C@]12C` [Compound 9, 1,4,6-Pregnatriene-3,20-dione]: the melting point lay within 144 to 146 °C. Also, the “5α-reductase inhibitory activity in words” value in data set [1] (setting [4]) is on record as “moderate inhibition”. The IC50 in data set [1] (setting [3]) came out at 760 nM.

`CC(=O)[C@H]1CC[C@H]2[C@@H]3C=CC4=CC(=O)[C@@H]5O[C@@H]5[C@]4(C)[C@H]3CC[C@]12C` [Compound 10, 1α,2α-Epoxypregna-4,6-diene-3,20-dione]: the melting point lay within 183 to 185 °C. In addition, the “5α-reductase inhibitory activity in words” value in data set [1] (setting [4]) was “no inhibitory activity”. Besides, the IC50 in data set [1] (setting [3]) is over 10000 nM.

The compound `CC(=O)[C@H]1CC[C@H]2[C@@H]3[C@@H]4O[C@@H]4C4=CC(=O)C=C[C@]4(C)[C@H]3CC[C@]12C` [Compound 13, 6α,7α-Epoxypregna-1,4-diene-3,20-dione] came in with a melting point of 206 to 208 °C. For the same compound, in data set [1] (setting [4]), the “5α-reductase inhibitory activity in words” value was “no inhibitory activity”. Further, the IC50 in data set [1] (setting [3]) was over 10000 nM.

As for `CC(=O)O[C@H]1CC[C@@]2(C)C(=CCC3C2CC[C@@]2(C)C3CC[C@@H]2C(C)=O)C1` (stereo partly drawn) [Compound 15, 3β-Acetoxypregnenolone], the “5α-reductase inhibitory activity in words” value in data set [1] (setting [4]) is on record as “no inhibition”. In data set [1] (setting [3]), the IC50 was over 10000 nM.

For `CC(=O)O[C@H]1CC[C@@]2(C)C(=CCC3C2CC[C@@]2(C)C3CC[C@@H]2C(C)=NO)C1` (stereo partly shown) [Compound 16], the “5α-reductase inhibitory activity in words” value in data set [1] (setting [4]) is “no inhibition”. In addition, the IC50 in data set [1] (setting [3]) is over 10000 nM.

As for `CC(=O)C1CCC2C3CC4OC45CC(O)CCC5(C)C3CCC12C` (stereo not shown) [Compound 17], the “5α-reductase inhibitory activity in words” value in data set [1] (setting [4]) was “no inhibition”. Moreover, in data set [1] (setting [3]), the IC50 is over 10000 nM.

In the case of `CC(=NO)C1CCC2C3CC4OC45CC(O)CCC5(C)C3CCC12C` (stereo not shown) [Compound 18], the “5α-reductase inhibitory activity in words” value in data set [1] (setting [4]) is “no inhibition”. Moreover, in data set [1] (setting [3]), the IC50 was over 10000 nM.

`CC(=NO)[C@H]1CCC2C3CCC4=CC(=O)CC[C@]4(C)C3CC[C@@]21C` (stereo partly shown) [Compound 20]: the IC50 in data set [1] (setting [3]) worked out at 14 nM.

Consider `CC(=NO)[C@H]1CCC2C3CCC(=O)[C@](C)(CCC(=O)O)C3CC[C@@]21C` (stereo partly shown) [Compound 21], for which, in data set [1] (setting [3]), the IC50 is 2100 nM.

For `CC(=NO)[C@H]1CCC2C3CCC4=CC(=O)C=C[C@]4(C)C3CC[C@@]21C` (stereo partly shown) [Compound 22, 1,4-Pregnadiene-20-oxime], the half-maximal inhibitory concentration (IC50) in data set [1] (setting [3]) came to 140 nM.

Regarding `CC(C)(C)NC(=O)[C@H]1CC[C@H]2[C@@H]3CC[C@H]4NC(=O)C=C[C@]4(C)[C@H]3CC[C@]12C` [Finasteride, finasteride, reference compound], the half-maximal inhibitory concentration (IC50) in data set [1] (setting [2]) and in data set [1] (setting [3]) was 1.2 nM each time.
